Patent US11844801B2, “Oral compositions of MK2 pathway inhibitor for treatment of immune conditions” (priority 2020, dated 2023)
Several values for one entry are separate records, joined by “and”; a condition that tells them apart may be missing. Equal entries are not always repeated.

What was measured:
[1] = test system: IL-1β; experiment: Ex vivo LPS-stimulated IL-1β in blood of dosed healthy subjects, PK/PD inhibitory Emax model; set-up: species or system human
Description: Blood samples of 10 mL were collected for PD analysis. For the SAD cohorts, blood was collected before dosing and 1, 12, and 24 hours after dosing. For the MAD cohorts, on day 1 blood was collected before the morning dose and 4 and 12 hours after the morning dose (prior to the evening dose); on day 7, blood was collected before the morning dose and 4 and 12 hours after the morning dose.
Additional details of the assays for analyzing p-HSP27 and cytokines are included in the Supplementary Information.
Pharmacodynamics. PD data analysis was conducted using Microsoft Excel 2010 (Microsoft, Redmond, WA), Meso Scale Discovery Workbench® analysis software (Rockville, MD), and Phoenix WinNonlin, version 8.2.
Sample Preparation for Cytokine Analysis. For each sample, 180 μL aliquots were transferred into 7 wells of a round bottom 96 well tissue culture polystyrene low evaporation plate. […] No outer wells on the plates were used and all wells surrounding the samples contained 200 μL of phosphate buffered saline.
DMSO was added to all wells in groups ‘A’ and ‘C’ to a final concentration of 0.1% ([…] of a 2% DMSO solution in DMEM containing 10% FBS and 1% penicillin/streptomycin/glutamine). […] Samples were mixed gently for 30 seconds on a plate shaker using pin tools, then placed in an incubator at 37° C./5% CO2 for 1 hour.
Samples in groups ‘A’ and ‘B’ were stimulated with lipopolysaccharide at a final concentration of 100 ng/mL. A stock solution of lipopolysaccharide at 1 mg/mL in DMEM containing 10% FBS and 1% penicillin/streptomycin was diluted to […] in DMEM containing 10% FBS and 1% penicillin/streptomycin, and […] of this working solution was added per well of blood for all samples in groups ‘A’ and ‘B’. […] of DMEM containing 10% FBS only was added per well of blood for all samples in group ‘C’ (unstimulated samples). Samples were mixed gently for 30 seconds on a plate shaker using pin tools, then placed in an incubator at 37° C./5% CO2 for 5 hours.
Following the incubation, the plates were removed from the incubator and sealed with adhesive clear plate seals. The plates were then centrifuged for 10 minutes at 1800×g at room temperature. […] of plasma was removed from each well and transferred to a 96-well polypropylene round bottom master plate, which was then sealed and frozen at −80° C. until all samples from the respective cohort were generated. Once all samples from a given cohort were generated, the samples were analyzed for cytokine (TNF-α, IL-1b, IL-6, and IL-8) production using Meso Scale Discovery Technology.
Analysis of Cytokine Levels Using Meso Scale Discovery Technology. All lipopolysaccharide plasma samples were analyzed for cytokine production with a V-Plex Human Proinflammatory Panel II (4-Plex) Kit from Meso Scale Discovery (Rockville, MD). The master plates containing the plasma samples were thawed on ice, and a daughter plate consisting of a 25-fold dilution of each plasma sample (3 μL of plasma plus 72 μL of Meso Scale Discovery Diluent 2) was generated for each master plate. The diluted plasma samples from the daughter plates were used in the cytokine analysis. The Meso Scale Discovery 4-plex plates were washed 3 times with 150 μL/well of wash buffer (1×KPL phosphate buffered saline with Tween 20 from SeraCare [Milford, MA]). Prepared calibrators and the samples from the daughter plates were added to the washed Meso Scale Discovery 4-plex plates at 50 μL/well. The 4-plex plates were sealed and shaken overnight at 4° C.
After the overnight incubation, the samples were removed by decanting. The 4-plex plates were then washed 3 times with 150 μL/well of wash buffer. […]

[2] = Phase 2a ATI-450 plus MTX in moderate to severe rheumatoid arthritis: clinical activity (DAS28-CRP, ACR20/50/70, joint counts, hsCRP); type: in vivo, human; settings: 50 mg BID plus MTX
[3] = test system: regulatory T cells (CD45+ CD3+ CD4+ Foxp3+); experiment: Murine collagen-induced arthritis model, T regulatory cells in popliteal lymph nodes; type: in vivo, mouse; settings: 1000 ppm chow from day 18, murine CIA model
Description: In this model DBA/1 mice (12/group) were immunized with bovine collagen/CFA to induce arthritis. […] At day 21, mice were boosted with bovine collagen/CFA, and at day 35 the study was terminated. Popliteal lymph nodes were dissected from mice, cleaned of any trace fat, mechanically dissociated and filtered through 70 micron cell strainers. Live lymphocytes were counted using a Moxi GO II cell counter (Orflo). One million lymphocytes were plated, treated with Fc block, and stained with antibodies targeting surface receptors (including CD45, CD3, CD4) along with a fixable live/dead dye. Cells were fixed/permeabilized (eBioscience Transcription Factor Staining kit) and stained with anti-Foxp3 antibody. The cells were collected via flow cytometry analysis on an Attune NxT instrument. T-regulatory cells were gated as lymphocyte-sized, live, CD45+ CD3+ CD4+ Foxp3+ cells.

[4] = test system: TNF-α, IL-6, and IL-8; experiment: Ex vivo IL-1β-induced TNF-α, IL-6 and IL-8 in blood of dosed healthy subjects; settings: human
Description: (§1) Methods: Safety, pharmacokinetics (PK) and pharmacodynamics (PD) were assessed in two cohorts of subjects in a randomized, observer-blind, placebo-controlled study in male and female healthy subjects aged 18-55 (n=77). The study consisted of twenty (20) subjects enrolled into 2 cohorts. […] The final dose was administered in the morning on Day 7. Blood samples were obtained Day 1—before dosing, Day 1—4 hours after dosing and Day 1—12 hours after dosing and Day 7—before dosing, Day 7—4 hours after dosing, day 7—12 hour after dosing and Day 7—24 hours after dosing for each subject.

[5] = Phase 1 SAD/MAD safety and tolerability in healthy subjects (incl. 80/120 mg BID extension)
Description: Single ascending dose (SAD) cohorts.
Multiple ascending dose (MAD) cohorts. […] Subjects were admitted to the clinical facility on day −1 and remained at the site until 72 hours after the morning dose on day 7.
Safety and Tolerability Assessments. Adverse events, clinical laboratory tests, vital signs, an electrocardiogram, Holter monitoring, and physical examination results were evaluated for each subject in both parts of the study.
as §1

[6] = all ATI-450 SAD and MAD cohorts, 3/48
[7] = all ATI-450 SAD and MAD cohorts, n = 48

SMILES: Cc1cnc(-c2ccnc(C(C)(C)O)n2)cc1-n1c(C)cc(OCc2ncc(F)cc2F)c(Cl)c1=O (single isomer, unassigned) [ATI-450, 3-chloro-4-((3,5-difluoropyridin-2-yl)methoxy)-2′-(2-(2-hydroxypropan-2-yl)pyrimidin-4-yl)-5′,6-dimethyl-2H-[1,4′-bipyridin]-2-one]
- IL-1β inhibition versus baseline ([1]; 50 mg BID MAD cohort): ≤ 83.0%
- Cmax (Multiple of IC80) ([1]; 50 mg BID, day 7): 5.4x
- Ctrough (Multiple of IC80) ([1]; 50 mg BID, day 7): 2.2x
- IC80 ([1]; Homo sapiens, calculated from IC50, combined SAD and MAD data, read-out: IC80, plasma concentration at 80% of maximal inhibition): 0.0408 µg/mL
- IC50 ([1]; Homo sapiens, inhibitory Emax model, combined SAD and MAD data, read-out: IC50, plasma concentration at half maximal inhibition): 0.0102 µg/mL
- IC80, plasma concentration at 80% of maximal inhibition ([1]; calculated from IC50, combined SAD and MAD data): 0.0408 µg/mL
- Imax, maximum percent inhibition ([1]; inhibitory Emax model): 74% and 74.3%
- swollen and tender joint count over time ([2]; 84 days): sustained decrease in swollen joint count and tender joint count
- DAS28-CRP change from baseline over time ([2]; through day 84): rapid and sustained onset of efficacy
- hsCRP change from baseline over time ([2]; through day 84): rapid and sustained reduction in hsCRP
- median reduction from baseline in hsCRP ([2]; throughout the 12 weeks): > 40%
- mean change from baseline in DAS28-CRP (reduction) ([2]; week 12): 2.0
- ACR20 response ([2]; week 12, 15 subjects): 60%
- ACR50 response ([2]; week 12, 15 subjects): 33%
- ACR70 response ([2]; week 12, 15 subjects): 20%
- proportion of subjects with DAS28-CRP <2.6 (remission) ([2]; week 12, 15 subjects): 20%
- proportion of subjects with DAS28-CRP ≤ 3.2 (low disease activity or remission) ([2]; week 12, 15 subjects): 40%
- number of regulatory T cells [3]: significantly increased the number of regulatory T cells
- ex vivo IL-1β-induced TNF-α, IL-6, and IL-8 [4]: potently inhibits
- subjects with TEAEs considered related to the study drug ([5]; 10 mg BID cohort, 1 of 8): 13%
- subjects with TEAEs considered related to the study drug ([5]; 30 mg BID cohort, 5 of 8): 63%
- subjects with TEAEs considered related to the study drug ([5]; 50 mg BID cohort, 3 of 8): 38%
- neutrophils ([5]; 50 mg BID, day 7 (baseline 3318.4 cells/μL)): 2514.4 cells/μL
- mean reduction in neutrophils ([5]; 50 mg BID, day 7 vs baseline): 24%
- Constipation, AE, n (%) ([5]; 80 mg BID, 7 days, n = 8): 1 (14%)
- Dizziness, AE, n (%) ([5]; 80 mg BID, 7 days, n = 8): 2 (25%)
- Headache, AE, n (%) ([5]; 80 mg BID, 7 days, n = 8): 2 (25%)
- Xerosis, AE, n (%) ([5]; 80 mg BID, 7 days, n = 8): 1 (13%)
- tolerability ([5]; 80 mg and 120 mg BID, 7 days): well tolerated with no severe adverse effects reported
- Abdominal Pain, AE, n (%) ([5]; 120 mg BID, 7 days, n = 8): 1 (13%)
- Dizziness, AE, n (%) ([5]; 120 mg BID, 7 days, n = 8): 6 (75%)
- Headache, AE, n (%) ([5]; 120 mg BID, 7 days, n = 8): 7 (88%)
- Loose stools, AE, n (%) ([5]; 120 mg BID, 7 days, n = 8): 1 (13%)
- Nausea, AE, n (%) ([5]; 120 mg BID, 7 days, n = 8): 2 (25%)
- Parasthesia, AE, n (%) ([5]; 120 mg BID, 7 days, n = 8): 2 (25%)
- Pharyngitis, AE, n (%) ([5]; 120 mg BID, 7 days, n = 8): 1 (13%)
- Xerosis, AE, n (%) ([5]; 120 mg BID, 7 days, n = 8): 5 (63%)
- neutrophils, laboratory change ([5]; MAD cohort, maximum effect Day 2 to Day 5): dose dependent reduction in neutrophils
- character of TEAEs ([5]; MAD cohorts 10-50 mg BID): mild, transient, and resolved without sequelae
- deaths, serious adverse events ([5]; MAD cohorts 10-50 mg BID): no deaths or SAEs
- subjects with TEAEs considered related to the study drug ([5]; MAD cohorts 10-50 mg BID, 9 of 24): 38%
- subjects reporting TEAEs ([5]; MAD cohorts 10-50 mg BID, 12 of 24): 50%
- vital signs, electrocardiograms, clinical laboratory values ([5]; SAD and MAD cohorts): No clinically significant findings
- character of TEAEs ([5]; SAD cohorts): mild, transient, and resolved without sequelae
- deaths, serious adverse events, discontinuations ([5]; SAD cohorts): No deaths or serious adverse events (SAEs)
- subjects with TEAEs considered related to the study drug ([5]; SAD cohorts, 4 of 24): 17%
- subjects reporting TEAEs ([5]; SAD cohorts, 7 of 24): 29%
- constipation, subjects with adverse event [5, 6]: 6.3%
- upper respiratory tract infection, subjects with adverse event [5, 6]: 6.3%
- dizziness, subjects with adverse event ([5]; all ATI-450 SAD and MAD cohorts, 6/48): 12.5%
- Abdominal pain, treatment-emergent adverse event, n subjects [5, 7]: 2
- Constipation, treatment-emergent adverse event, n subjects [5, 7]: 3
- Dizziness, treatment-emergent adverse event, n subjects [5, 7]: 6
- Headache, treatment-emergent adverse event, n subjects [5, 7]: 10
- Nausea, treatment-emergent adverse event, n subjects [5, 7]: 2
- Upper respiratory tract infection, treatment-emergent adverse event, n subjects [5, 7]: 3
- Vomiting, treatment-emergent adverse event, n subjects [5, 7]: 0
- subjects with TEAEs considered related to the study drug ([5]; single dose 10 mg cohort): 0 subjects
- subjects with TEAEs considered related to the study drug ([5]; single dose 30 mg cohort): 33%
- subjects with TEAEs considered related to the study drug ([5]; single dose 50 mg cohort): 17%
- subjects with TEAEs considered related to the study drug ([5]; single dose 100 mg cohort): 1 subject
- safety and tolerability ([5]; single doses up to 100 mg, multiple doses up to 50 mg BID for 7 days): generally safe and well tolerated
